Reference: patent US12564583B2, “Small molecules against cereblon to enhance effector T cell function” (H. LEE MOFFITT CANCER CENTER AND RESEARCH INSTITUTE, INC., priority 2016, dated 2026)
pIC50: −log10 of the molar value. One block for each compound: values may come before it. Non-standard residues stand in square brackets, D forms with d. Residues, ends and D or L forms follow the SMILES beside them. pGlu = O=C1CC[C@@H](C(=O)O)N1

Columns and labels:
[1] = biological target: thalidomide binding domain (TBD) of cereblon (Homo sapiens, UniProt Q96SW2); experiment: Cereblon binding (DSF, FP/FI); details: for inhibition at 200 µM: read-out: Cereblon Binding (≥50% inhibition at 200 μM)
Description: Several libraries are available for screening inhibitors. Virtual analysis was formulated and then theoretical design of chemical test kit and virtual screen of test kit were carried out. Physical binding studies were also completed for the initial compounds using DSF and FP assays after they are fully tested. TEST KITs that represent the compounds identified from each of the available chemical libraries based on virtual chemical structures were also made.

[2] = Viability relative to DMSO; format: cell-based; set-up: concentration or dose not given beside the values
[3] = system: IL-2; experiment: IL-2 relative to DMSO; format: cell-based
[4] = system: U-937; experiment: Viability of sensitive cell line relative to DMSO; format: cell-based
[5] = system: K562; experiment: Viability of sensitive cell line relative to DMSO; format: cell-based
[6] = Viability of sensitive cell line relative to DMSO; format: cell-based; set-up: concentration or dose not given beside the values; details: human, lymphocytes
[7] = system: U266; experiment: Viability of sensitive cell line relative to DMSO; format: cell-based, human
Description: (§1) For proliferation studies, 1-2×10^4 cells per well were seeded in a 96-well plate and were treated with using cell-counting-8 kit (CCK8) (Dojindo, Rockville, MD) according to manufacturer's protocol.

[8] = system: MM1.S; experiment: Viability of sensitive cell line relative to DMSO; format: cell-based, human
Description: as §1

[9] = system: THP-1; experiment: Viability of sensitive cell line relative to DMSO; format: cell-based
[10] = system: HL-60; experiment: Viability of sensitive cell line relative to DMSO; format: cell-based
[11] = system: mouse T cells; experiment: Flow cytometry of activated T cells (CD98, viability, division); format: cell-based
[12] = system: BRD4 protein and c-Myc expression; experiment: Western blot of BRD4 and c-Myc; format: cell-based, human and mouse
[13] = system: c-Myc mRNA; experiment: qRT-PCR of c-Myc in T cells; format: cell-based; details: primary mouse T cells, 72 h
Description: qRT-PCR: Isolated T cells from Crbn^+/+ and Crbn^−/− mice were lysed, homogenized (Qiashredder, Qiagen), and total RNA extracted (RNeasy, Qiagen) according to manufacturer protocol. Complementary DNA was generated from isolated RNA (iScript cDNA synthesis Kit, Bio-Rad). RNA expression was analyzed by quantitative real time-polymerase chain reaction (qRT-PCR) using Taqman Universal PCR Master Mix for Taqman probes (Thermo Fischer Scientific) against (cDNA) c-Myc (Mm00487804_m1) and (cDNA) β2M (Mm00437762_m1). Samples were run on an Applied Biosystems 7900 HT and Sequence Detection Systems software.

[14] = biological target: T1, human TBD wild type (Homo sapiens, UniProt Q96SW2); experiment: Intrinsic tryptophan fluorescence assay (IF); format: binding
T1 construct: The gene coding for the human TBD (aa 317-425) was synthesized; GST (PreScission site, pGEX-6P-1) (N, cleaved yes); made in house; host or cells: E. coli Rosetta 2(DE3)pLysS
Description: Intrinsic tryptophan fluorescence assay: Binding of compounds to wild-type and mutant TBD was monitored by fluorescence spectroscopy, using an adapted previously published method (14). All chemicals used in this assay were purchased from Sigma-Aldrich unless otherwise stated. In this assay, changes in emission spectra are induced by interactions of these compounds with the three Trp residues (Trp380, Trp386 and Trp400) in the binding site (15, 16). […] A 0.5% final DMSO concentration was used in each well. […] All measurements were done in triplicate and corrected for inner filter effect to subtract for ligand-associated fluorescence, as described (17). […] Graph plotting and curve fitting to obtain apparent dissociation constant (KD) values were calculated by fitting the relative change in intrinsic fluorescence at 340 nm (1-F/F0) versus ligand concentration to a nonlinear regression with one-site binding hyperbola with GraphPad Prism Sofware (GraphPad Software, La Jolla, CA).

[15] = system: human T cells; experiment: IL-2 production by stimulated T cells; format: cell-based; details: anti-CD3 stimulated, relative to DMSO
[16] = system: Human multiple myeloma cell lines U266, H929, MM1.S, and OPM2; experiment: Growth suppression of multiple myeloma cells; format: cell-based; details: for pIC50: Homo sapiens, Multiple myeloma cell, read-out: IC50 doses
Description: as §1

[17] = system: mouse T cells; experiment: IL-2 production by stimulated T cells; format: cell-based; details: 10 μM, ± anti-CD28
[18] = system: human T cells; experiment: Viability and proliferation of activated T cells; format: cell-based

Chain of thalidomide binding domain (TBD) of cereblon (Q96SW2 318-426 limits assumed): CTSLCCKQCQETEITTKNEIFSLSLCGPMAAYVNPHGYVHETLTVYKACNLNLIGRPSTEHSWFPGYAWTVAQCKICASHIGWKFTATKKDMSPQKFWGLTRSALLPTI
T1 sequence (Q96SW2 317-425): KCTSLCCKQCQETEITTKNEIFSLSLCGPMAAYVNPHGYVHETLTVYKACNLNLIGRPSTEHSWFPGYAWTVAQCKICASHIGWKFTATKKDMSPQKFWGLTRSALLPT

Structure (SMILES): O=C1CC(N2C(=O)c3ccccc3C2=O)C(=O)N1 (stereo not shown)
- Cereblon Binding (≥50% inhibition at 200 μM) [1]: No
- viability [2]: 75.3%
- IL-2 (%) (Relative to DMSO) [3]: 10.9%

Structure (SMILES): O=C1C[C@H](N2C(=O)c3ccccc3C2=O)C(=O)N1
- Cereblon Binding (≥50% inhibition at 200 μM) [1]: No
- viability [2]: 85.6%
- IL-2 (%) (Relative to DMSO) [3]: 44.4%

Structure (SMILES): Nc1ccccc1S(=O)(=O)NCCn1ccc(=O)[nH]c1=O
- Cereblon Binding (≥50% inhibition at 200 μM) [1]: No
- viability [2]: 74.6%
- IL-2 (%) (Relative to DMSO) [3]: 31.8%

Structure (SMILES): O=C1CCC(NCCc2ccccn2)C(=O)N1 (stereo not shown)
- inhibition at 200 µM [1]: > 50%
- Viability (%) (Relative to DMSO) [4]: 58.4%
- Viability (%) (Relative to DMSO) [5]: 80.0%
- viability [6]: 91.1%
- Viability (%) (Relative to DMSO) [7]: 27.0%
- Viability (%) (Relative to DMSO) [8]: 29.9%
- Viability (%) (Relative to DMSO) [9]: 98.8%
- Viability (%) (Relative to DMSO) [10]: 81.8%

Structure (SMILES): CN(Cc1ccccc1)C1CC(=O)NC1=O (stereo not shown)
- Cereblon Binding (≥50% inhibition at 200 μM) [1]: No
- Viability (%) (Relative to DMSO) [4]: 98.5%
- Viability (%) (Relative to DMSO) [5]: 116.7%
- viability [6]: 96.8%
- Viability (%) (Relative to DMSO) [7]: 0%
- Viability (%) (Relative to DMSO) [8]: 1.1%
- Viability (%) (Relative to DMSO) [9]: 32.6%
- Viability (%) (Relative to DMSO) [10]: 10.15%

Structure (SMILES): Cn1c(=O)ccn(CCCCc2ccccc2)c1=O
- Cereblon Binding (≥50% inhibition at 200 μM) [1]: No
- Viability (%) (Relative to DMSO) [4]: 50.5%
- Viability (%) (Relative to DMSO) [5]: 17.7%
- viability [6]: 94.2%
- Viability (%) (Relative to DMSO) [7]: 32.7%
- Viability (%) (Relative to DMSO) [8]: 43.0%
- Viability (%) (Relative to DMSO) [9]: 32.8%
- Viability (%) (Relative to DMSO) [10]: 39.3%

Structure (SMILES): CNc1ccccc1C(=O)NCCNC1CC(=O)NC1=O (stereo not shown)
- Cereblon Binding (≥50% inhibition at 200 μM) [1]: No
- Viability (%) (Relative to DMSO) [4]: 6.3%
- Viability (%) (Relative to DMSO) [5]: 21.1%
- viability [6]: 92.6%
- Viability (%) (Relative to DMSO) [7]: 0.1%
- Viability (%) (Relative to DMSO) [8]: 53.6%
- Viability (%) (Relative to DMSO) [9]: 41.1%
- Viability (%) (Relative to DMSO) [10]: 12.0%

Structure (SMILES): COC(=O)[C@H](C)NC(=O)[C@@H]1CCC(=O)N1 ([pGlu]-Ala-OMe)
- Cereblon Binding (≥50% inhibition at 200 μM) [1]: No
- viability [2]: 101%
- IL-2 (%) (Relative to DMSO) [3]: 11.7%

Structure (SMILES): CC(C)C[C@H](NC(=O)[C@@H]1CCC(=O)N1)C(N)=O ([pGlu]-Leu-NH2)
- Cereblon Binding (≥50% inhibition at 200 μM) [1]: No
- viability [2]: 110%
- IL-2 (%) (Relative to DMSO) [3]: 24.6%

Structure (SMILES): Cc1sc2c(c1C)C(c1ccc(Cl)cc1)=N[C@@H](CC(=O)OC(C)(C)C)c1nnc(C)n1-2 [JQ1]
- proliferation [11]: compromised
- surface expression of CD98 [11]: reduction
- viability [11]: compromised
- BRD4 protein level ([12]; activated mouse T cells, not dependent on CRBN): slight reduction in protein expression
- c-Myc mRNA [13]: Suppression
- binding affinity for CRBN-TBD [14]: does not bind

- pIC50 [16]: 4.79 to 5.15
Structure (SMILES): Nc1cccc2c1CN(C1CCC(=O)NC1=O)C2=O (stereo not shown) [Lenalidomide, lenalidomide]
- levels of IL2 mRNA and protein [15]: significantly increased
- lenalidomide-induced increase in IL-2 [17]: only human T cells displayed the expected lenalidomide-induced increase in IL-2

Structure (SMILES): Nc1cccc2c1C(=O)N(C1CCC(=O)NC1=O)C2=O (stereo not shown) [Pomalidomide, pomalidomide]
- proliferation [18]: increase proliferation
- relative viability ([18]; 72 h): no effect on viability
- pIC50 [16]: 6.21 to 7.30

Structure (SMILES): O=C1CCC(N2C(=O)c3ccccc3C2=O)C(=O)N1 (stereo not shown) [Thalidomide, thalidomide]
- growth suppression ([16]; doses up to 200 μM): no suppressive function

Structure (SMILES): Cc1sc2c(c1C)C(c1ccc(Cl)cc1)=N[C@@H](CC(=O)NCCCCNC(=O)COc1cccc3c1C(=O)N(C1CCC(=O)NC1=O)C3=O)c1nnc(C)n1-2 (stereo partly shown) [dBET1]
- surface expression of CD98 [11]: reduces the percentage of cells expressing the c-Myc target CD98
- viability [11]: suppresses viability
- BRD4 protein and c-Myc expression ([12]; human T cells, mouse T cells, MM1.S, 5TGM1): dramatically suppressed

Structure (SMILES): Nc1cccc2c1C(=O)N(C1CCC(=O)NC1=O)C2=O (stereo not shown) [drawing 76]
- inhibition at 200 µM [1]: > 50%
- viability [2]: 96.3%
- IL-2 (%) (Relative to DMSO) [3]: 208.6%

Structure (SMILES): Nc1cccc2c1CN(C1CCC(=O)NC1=O)C2=O (stereo not shown) [drawing 123]
- viability [6]: 99.9%
